Reference: article PMC6522510 (Nature Communications, 2019)
Counter-ions that a name gives are not always drawn. Like-named read-outs stand apart in the source and are kept apart here. Square brackets hold non-standard residues; d marks the D form. Peptide text beside a SMILES is read from it. * marks the point of attachment. Sta = CC(C)C[C@H](N)[C@@H](O)CC(=O)O; Isovaleryl = CC(C)CC(=O)*

Key:
Design in all cases: species or system AML cell lines (8); Primary HTS, single concentration about 10 uM, Cell Titer Glo viability; log10 luminescence, per cent inhibition relative to cycloheximide control
Settings in all cases: 72 h, relative to cycloheximide control, log10 luminescence, inhibitor
[1] = system: CMK
[2] = system: ML-2
[3] = system: MV4-11
[4] = system: CMS
[5] = system: U937
[6] = system: M07e
[7] = system: CHRF288-11
[8] = system: MOLM-13

NCC1(CC(=O)O)CCCCC1 [SJ000287210-5, GABAPENTIN]
CMK %inh [1]: 0.3533%
ML-2 %inh [2]: -3.023%
MV4-11 %inh [3]: 5.813%
CMS %inh [4]: -2.432%
U937 %inh [5]: -1.755%
M07e %inh [6]: -2.786%
CHRF288-11 %inh [7]: -2.43%
MOLM-13 %inh [8]: 0.8376%

CC(C)CC(=O)N[C@H](C(=O)N[C@H](C(=O)N[C@@H](CC(C)C)[C@@H](O)CC(=O)N[C@@H](C)C(=O)N[C@@H](CC(C)C)[C@@H](O)CC(=O)O)C(C)C)C(C)C [SJ000287258-3, PEPSTATIN A] (Isovaleryl-VV[Sta]A[Sta]-OH)
CMK %inh ([1]; CMK %inh, 10 µM): -4.878%
ML-2 %inh ([2]; ML-2 %inh, 10 µM): 1.096%
MV4-11 %inh ([3]; MV4-11 %inh, 10 µM): 0.8934%
CMS %inh ([4]; CMS %inh, 10 µM): 1.08%
U937 %inh ([5]; U937 %inh, 10 µM): 4.393%
M07e %inh ([6]; M07e %inh, 10 µM): 1.266%
CHRF288-11 %inh ([7]; CHRF288-11 %inh, 10 µM): 20.49%
MOLM-13 %inh ([8]; MOLM-13 %inh, 10 µM): -0.1246%

CC(C)CC(=O)N[C@H](C(=O)N[C@H](C(=O)N[C@@H](CC(C)C)[C@@H](O)CC(=O)N[C@@H](C)C(=O)N[C@@H](CC(C)C)[C@@H](O)CC(=O)O)C(C)C)C(C)C [SJ000287258-4, PEPSTATIN A] (Isovaleryl-VV[Sta]A[Sta]-OH)
CMK %inh ([1]; CMK %inh, 10 µM): -1.598%
ML-2 %inh ([2]; ML-2 %inh, 10 µM): -2.254%
MV4-11 %inh ([3]; MV4-11 %inh, 10 µM): 2.97%
CMS %inh ([4]; CMS %inh, 10 µM): 2.288%
U937 %inh ([5]; U937 %inh, 10 µM): -1.362%
M07e %inh ([6]; M07e %inh, 10 µM): -0.4461%
CHRF288-11 %inh ([7]; CHRF288-11 %inh, 10 µM): -1.709%
MOLM-13 %inh ([8]; MOLM-13 %inh, 10 µM): 0.9923%

C=CC1=C(C(=O)O)N2C(=O)[C@@H](NC(=O)/C(=N\OCC(=O)O)c3csc(N)n3)[C@H]2SC1 [SJ000287284-2, CEFIXIME]
CMK %inh [1]: 0.8991%
ML-2 %inh [2]: -0.1874%
MV4-11 %inh [3]: -3.36%
CMS %inh [4]: -2.931%
U937 %inh [5]: 0.1666%
M07e %inh [6]: -4.21%
CHRF288-11 %inh [7]: -7.075%
MOLM-13 %inh [8]: 0.1743%

CN(CCCCCCCCCCN(C)C(=O)Oc1cccc([N+](C)(C)C)c1)C(=O)Oc1cccc([N+](C)(C)C)c1 [SJ000287334-2, DEMECARIUM BROMIDE]
CMK %inh ([1]; CMK %inh, 10 µM): 0.3844%
ML-2 %inh ([2]; ML-2 %inh, 10 µM): 3.342%
MV4-11 %inh ([3]; MV4-11 %inh, 10 µM): 26.64%
CMS %inh ([4]; CMS %inh, 10 µM): 0.249%
U937 %inh ([5]; U937 %inh, 10 µM): 24.11%
M07e %inh ([6]; M07e %inh, 10 µM): 6.779%
CHRF288-11 %inh ([7]; CHRF288-11 %inh, 10 µM): 5.292%
MOLM-13 %inh ([8]; MOLM-13 %inh, 10 µM): 14.75%

CN(CCCCCCCCCCN(C)C(=O)Oc1cccc([N+](C)(C)C)c1)C(=O)Oc1cccc([N+](C)(C)C)c1 [SJ000287334-3, DEMECARIUM BROMIDE]
CMK %inh ([1]; CMK %inh, 10 µM): 4.147%
ML-2 %inh ([2]; ML-2 %inh, 10 µM): 2.323%
MV4-11 %inh ([3]; MV4-11 %inh, 10 µM): 33.39%
CMS %inh ([4]; CMS %inh, 10 µM): 4.988%
U937 %inh ([5]; U937 %inh, 10 µM): 32.99%
M07e %inh ([6]; M07e %inh, 10 µM): 11.04%
CHRF288-11 %inh ([7]; CHRF288-11 %inh, 10 µM): -4.258%
MOLM-13 %inh ([8]; MOLM-13 %inh, 10 µM): 13.7%

CNCC(O)c1ccc(OC(=O)C(C)(C)C)c(OC(=O)C(C)(C)C)c1 (centres unmarked) [SJ000287343-2, DIPIVEFRIN HYDROCHLORIDE]
CMK %inh [1]: -4.432%
ML-2 %inh [2]: 3.768%
MV4-11 %inh [3]: 8.373%
CMS %inh [4]: -0.6385%
U937 %inh [5]: 7.06%
M07e %inh [6]: 1.591%
CHRF288-11 %inh [7]: 9.226%
MOLM-13 %inh [8]: 33.32%

COCCCC/C(=N\OCCN)c1ccc(C(F)(F)F)cc1 [SJ000287487-5, FLUVOXAMINE MALEATE]
CMK %inh [1]: -1.719%
ML-2 %inh [2]: 4.445%
MV4-11 %inh [3]: 0.9693%
CMS %inh [4]: -2.805%
U937 %inh [5]: 7.709%
M07e %inh [6]: 1.409%
CHRF288-11 %inh [7]: 7.313%
MOLM-13 %inh [8]: 5.945%

COC(=O)C1=C(C)NC(C)=C(C(=O)OC(C)C)C1c1cccc2nonc12 (centres unmarked) [SJ000287510-2, ISRADIPINE]
CMK %inh [1]: -2.127%
ML-2 %inh [2]: -1.199%
MV4-11 %inh [3]: 2.426%
CMS %inh [4]: -2.562%
U937 %inh [5]: 3.366%
M07e %inh [6]: 0.2973%
CHRF288-11 %inh [7]: 8.592%
MOLM-13 %inh [8]: 6.188%

Cc1cccc(C)c1NC(=O)C(C)N (centres unmarked) [SJ000287515-4, TOCAINIDE HYDROCHLORIDE]
CMK %inh [1]: -3.02%
ML-2 %inh [2]: 2.731%
MV4-11 %inh [3]: -0.903%
CMS %inh [4]: -0.9728%
U937 %inh [5]: -0.5289%
M07e %inh [6]: 1.522%
CHRF288-11 %inh [7]: -1.466%
MOLM-13 %inh [8]: 2.63%

CCOc1cc(CC(=O)N[C@@H](CC(C)C)c2ccccc2N2CCCCC2)ccc1C(=O)O [SJ000287528-2, REPAGLINIDE]
CMK %inh ([1]; CMK %inh, 10 µM): -2.471%
ML-2 %inh ([2]; ML-2 %inh, 10 µM): 3.177%
MV4-11 %inh ([3]; MV4-11 %inh, 10 µM): 0.6192%
CMS %inh ([4]; CMS %inh, 10 µM): 0.05176%
U937 %inh ([5]; U937 %inh, 10 µM): -2.093%
M07e %inh ([6]; M07e %inh, 10 µM): 3.133%
CHRF288-11 %inh ([7]; CHRF288-11 %inh, 10 µM): 3.798%
MOLM-13 %inh ([8]; MOLM-13 %inh, 10 µM): -0.4831%

CCOc1cc(CC(=O)N[C@@H](CC(C)C)c2ccccc2N2CCCCC2)ccc1C(=O)O [SJ000287528-3, REPAGLINIDE]
CMK %inh ([1]; CMK %inh, 10 µM): -1.863%
ML-2 %inh ([2]; ML-2 %inh, 10 µM): -0.6814%
MV4-11 %inh ([3]; MV4-11 %inh, 10 µM): -2.004%
CMS %inh ([4]; CMS %inh, 10 µM): -3.811%
U937 %inh ([5]; U937 %inh, 10 µM): 0.8964%
M07e %inh ([6]; M07e %inh, 10 µM): 1.002%
CHRF288-11 %inh ([7]; CHRF288-11 %inh, 10 µM): 0.4521%
MOLM-13 %inh ([8]; MOLM-13 %inh, 10 µM): 1.863%

CCN[C@H]1C[C@H](C)S(=O)(=O)c2sc(S(N)(=O)=O)cc21 [SJ000287570-2, DORZOLAMIDE HYDROCHLORIDE]
CMK %inh [1]: 0.1634%
ML-2 %inh [2]: -0.8167%
MV4-11 %inh [3]: -1.46%
CMS %inh [4]: -2.24%
U937 %inh [5]: 2.321%
M07e %inh [6]: -0.4811%
CHRF288-11 %inh [7]: -4.447%
MOLM-13 %inh [8]: 5.665%

NS(=O)(=O)c1cc2c(cc1Cl)NC(C1CC3C=CC1C3)NS2(=O)=O (centres unmarked) [SJ000287770-4, CYCLOTHIAZIDE]
CMK %inh [1]: 4.526%
ML-2 %inh [2]: 0.8137%
MV4-11 %inh [3]: 2.178%
CMS %inh [4]: 2.052%
U937 %inh [5]: 3.095%
M07e %inh [6]: -1.741%
CHRF288-11 %inh [7]: -0.8826%
MOLM-13 %inh [8]: 4.774%

CCOC(=O)c1ncn2c1CN(C)C(=O)c1cc(F)ccc1-2 [SJ000287880-4, FLUMAZENIL]
CMK %inh [1]: -1.15%
ML-2 %inh [2]: -1.521%
MV4-11 %inh [3]: 0.7722%
CMS %inh [4]: 5.754%
U937 %inh [5]: 0.9807%
M07e %inh [6]: 1.865%
CHRF288-11 %inh [7]: 1.517%
MOLM-13 %inh [8]: -0.5944%

O=C1Nc2ccc(I)cc2C1=Cc1cc(Br)c(O)c(Br)c1 [SJ000287883-4, GW 5074 | GW5074 | RAF1 KINASE INHIBITOR I | U7401/61/2 | GW5074]
CMK %inh [1]: 3.747%
ML-2 %inh [2]: -0.3991%
MV4-11 %inh [3]: 1.335%
CMS %inh [4]: 1.257%
U937 %inh [5]: 2.224%
M07e %inh [6]: 1.287%
CHRF288-11 %inh [7]: 7.111%
MOLM-13 %inh [8]: 3.135%
